According to paper PMC2874894 (Investigative ophthalmology & visual science, 2009):

Molecular target: rPASP (Pseudomonas aeruginosa small protease) (Pseudomonas aeruginosa, UniProt Q9I690)
Test: fluorescein-gelatin hydrolysis, fluorescence
Type: biochemical
Conditions: fluorescein-conjugated gelatin substrate; rPASP 10 ug; 24 h, 37 °C

Chain of rPASP (Pseudomonas aeruginosa small protease) (Q9I690 whole entry): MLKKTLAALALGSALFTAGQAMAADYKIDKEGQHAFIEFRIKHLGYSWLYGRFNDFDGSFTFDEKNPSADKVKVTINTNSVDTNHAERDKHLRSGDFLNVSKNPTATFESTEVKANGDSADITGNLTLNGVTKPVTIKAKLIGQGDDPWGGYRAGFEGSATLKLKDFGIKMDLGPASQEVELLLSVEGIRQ

**Q.** With `Cc1ccc(S(=O)(=O)N[C@@H](CCCCN)C(=O)CCl)cc1` [TLCK] as the compound, how does the dose-dependent inhibition read?
**A.** Only TLCK demonstrated dose-dependent inhibition of rPASP activity
